Results from patent US20230159954A1, “Apparatus for Improved Transfection and / or intracellular delivery efficiency of an Agent into a Eukaryotic Cell and / or Protein Expression and Method of Use Thereof” (St Andrews Pharmaceutical Technology Ltd., priority 2020, published 2023).
Entries after “also recorded” stand apart in the source; their conditions may differ.

Tested on: Human Colon Tumour (HCT) 116 cells
Assay: Western Blot of p53 isoforms after doxorubicin treatment with or without pulsed technology
Type: cell-based
Conditions: for uptake / intra-cellular delivery of doxorubicin from the media: concluded from upregulation of p53 isoforms
Procedure: Human Colon Tumour (HCT) 116 cells (adherent cells) (ATCC, USA-ATCC® CCL-247™) were seeded at a density of 3×10^5 cells per well in two CELLSTAR® 6-well plates (9.6 cm^2) in a final volume of 5 mL Dulbecco's Modified Eagle Medium (DMEM) (Thermo Fisher, USA)+10% Fetal Bovine Serum (FBS) (Hyclone, USA) 24 hours before treatment.
The naked agent used was Doxorubicin (0.25 μM) (Sigma Aldrich) in absolute ethanol and was given to the cells for a 1 hour treatment period and incubated at 37° C., at 5% CO^2.
After treatment the media was removed and fresh media was added to the cells. One of the plates was incubated directly at 37° C., at 5% CO^2 and the second plate was placed in a different incubator and pulsed using the pulsed technology of the present invention at 37° C., at 5% CO^2.
Protein extracts were collected at 3 hours, 6 hours, 9 hours, 16 hours or 24 hours of treatment for analysis by SDS-page.
1. For protein extraction the cells were washed twice with ice-cold PBS and then lysed in NP-40 extraction buffer (50 mM Tris pH 7.5; 10% glycerol; 0.1% “NP-40 Alternative” (Merck Millpore, USA); 100 mM NaCl; 0.2 mM EDTA) supplemented with 1× Complete™ Protease Inhibitor Cocktail (Roche, Switzerland). Extracts were sonicated (20 seconds, 20% amplitude) and protein concentration was determined using BCA™ Protein Assay Kit (ThermoFisher Scientific, USA) according to the manufacturer's recommendations.
1. Protein extracts (15/20 μg depending on the experiment) were supplemented with 0.1M dithiothreitol (DTT) and 1×LDS buffer (Invitrogen, USA) and were heated at 95° C. for 10 min before loading on NuPAGE 10% Bis-Tris polyacrylamide gels (Invitrogen, USA).
2. Protein samples were separated by electrophoresis (100V) using 1×MOPS Running Buffer. Transfer of proteins was performed at 12V overnight onto a nitrocellulose membrane (Protran 0.1 μm from GE Healthcare, USA) in 1× Transfer Buffer supplemented with 20% methanol. 1× Transfer Buffer is prepared from 10× Wet blot solution containing 144 g of glycine and 30 g Tris-Base in a final volume of 1 L milli-Q water.
3. Membranes were blocked for 30 min in 5% BSA diluted in PBS-0.1% Tween20 before being incubated overnight with a primary antibody (Mouse monoclonal antibody DO1). After a wash of 15 min in PBS-Tween20, membranes were incubated for 1 h with a corresponding secondary antibody (HRP conjugated Donkey anti Mouse). All secondary antibodies, conjugated with Horse Radish Peroxidase (HRP), were purchased from Jackson ImmunoResearch lab and used at 1:10000/1:15000 dilution (depending on the antibody) in 5% BSA-PBS-Tween20.
At the end of the incubation membranes were washed twice with PBS-Tween20 for 15 min followed by a final 10 min wash with PBS. The chemiluminescence signal was detected on Hyperfilm™ ECL (Cytiva, USA) using the Amersham ECL Western Blotting Detection System (Cytiva, USA).

COc1cccc2c1C(=O)c1c(O)c3c(c(O)c1C2=O)C[C@@](O)(C(=O)CO)C[C@@H]3O[C@H]1C[C@H](N)[C@H](O)[C@H](C)O1 [Doxorubicin]
p53alpha expression (Western Blot, FIG. 8) (0.25 μM doxorubicin for 1 hour, pulsed technology vs control, after 16 hours): significant overproduction of p53alpha compared to the control
Other isoforms of p53 (d133p53alpha, d133p53beta, d160p53beta) expression (Western Blot, FIG. 7) (Doxorubicin 0.25 μM for 1 hour, pulsed technology vs control): more upregulated
p53alpha expression (Western Blot, FIG. 7) (Doxorubicin 0.25 μM for 1 hour, pulsed technology vs control, seen from 3 hours, most evident 24 hours post-treatment): upregulated
γH2AX expression (ionising radiation marker, Western Blot) (doxorubicin, pulsed technology arm vs control arm): no observed change; also recorded: remained unchanged
uptake / intra-cellular delivery of doxorubicin from the media (pulsed technology vs control): significantly improved
uptake / intra-cellular delivery of doxorubicin from the media (pulsed technology vs control, listed as doxorubicin): increases the ability of the cells to uptake doxorubicin
